# Experimental data taken from PubChem BioAssay (NCI).
#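 Step 1: Grow cells in 96-well plates. Step 2: Expose to compound for 48 hours at 5 concentrations. Step 3: Interpolate endpoints linearly; if unreached, use highest concentration. Definition used: TGI = concentration required for complete inhibition of growth.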
# Assays:
# Test in all cases: inhibition of tumour cell growth, NCI panel, 48 h
# [1] = tested on: SNB-75 CNS
# [2] = tested on: DLD-1 colon
# [3] = tested on: HOP-92 NSCLC
# [4] = tested on: OVCAR-5 ovarian
# [5] = tested on: UO-31 renal
# [6] = tested on: NCI-H522 lung
# [7] = tested on: SNB-78 CNS
# [8] = tested on: UACC-62 melanoma
# [9] = tested on: KM12 colon
# [10] = tested on: CAKI-1 renal
# [11] = tested on: RXF-631 renal
# [12] = tested on: K-562 leukemia
# [13] = tested on: SF-268 CNS
# [14] = tested on: ACHN renal
# [15] = tested on: NCI-H226 lung
# [16] = tested on: SN12C renal
# [17] = tested on: 786-0 renal
# [18] = tested on: A498 renal
# [19] = tested on: A549 NSCLC
# [20] = tested on: SW-620 colon
# [21] = tested on: DMS 273 small cell lung
# [22] = tested on: CCRF-CEM leukemia
# [23] = tested on: SF-295 CNS
# [24] = tested on: HOP-18 NSCLC
# [25] = tested on: OVCAR-4 ovarian
# [26] = tested on: OVCAR-3 ovarian
# [27] = tested on: SK-MEL-28 melanoma
# [28] = tested on: HCT-15 colon
# [29] = tested on: NCI-H460 lung
# [30] = tested on: KM20L2 colon
# [31] = tested on: DMS 114 small cell lung
# [32] = tested on: MOLT-4 leukemia
# [33] = tested on: SK-OV-3 ovarian
# [34] = tested on: NCI-H23 lung
# [35] = tested on: LOX IMVI melanoma
# [36] = tested on: HL-60(TB) leukemia
# [37] = tested on: IGROV1 ovarian
# [38] = tested on: RPMI-8226 leukemia
# [39] = tested on: COLO 205 colon
# [40] = tested on: TK-10 renal
# [41] = tested on: RXF 393 renal
# [42] = tested on: HOP-62 NSCLC
# [43] = tested on: LXFL 529 NSCLC
# [44] = tested on: U251 CNS
# [45] = tested on: SK-MEL-5 melanoma
# [46] = tested on: OVCAR-8 ovarian
# [47] = tested on: HT29 colon
# [48] = tested on: UACC-257 melanoma
# [49] = tested on: SNB-19 CNS
# [50] = tested on: SR leukemia
# [51] = tested on: EKVX NSCLC
# [52] = tested on: M14 melanoma
# [53] = tested on: MALME-3M melanoma
# [54] = tested on: SF-539 CNS
# [55] = tested on: XF 498 CNS
# [56] = tested on: HCC-2998 colon
# [57] = tested on: HCT-116 colon
smiles,measurement,setting,value
Cc1ccc(C(=O)O)cc1NC(=O)c1cc(/C=C/c2ccccc2)[nH]c(=S)n1,TGI,[1],> 100 µM
same,TGI,[2],> 77.1 µM
same,TGI,[3],> 100 µM
same,TGI,[4],> 100 µM
same,TGI,[5],> 100 µM
same,TGI,[6],> 100 µM
same,TGI,[7],> 100 µM
same,TGI,[8],> 100 µM
same,TGI,[9],> 100 µM
same,TGI,[10],> 100 µM
same,TGI,[11],> 100 µM
same,TGI,[12],> 100 µM
same,TGI,[13],> 100 µM
same,TGI,[14],> 100 µM
same,TGI,[15],> 100 µM
same,TGI,[16],> 100 µM
same,TGI,[17],> 100 µM
same,TGI,[18],> 100 µM
same,TGI,[19],> 100 µM
same,TGI,[20],> 48.8 µM
same,TGI,[21],> 100 µM
same,TGI,[22],> 100 µM
same,TGI,[23],> 100 µM
same,TGI,[24],> 100 µM
same,TGI,[25],> 100 µM
same,TGI,[26],> 100 µM
same,TGI,[27],> 100 µM
same,TGI,[28],> 60.7 µM
same,TGI,[29],> 100 µM
same,TGI,[30],> 100 µM
same,TGI,[31],> 100 µM
same,TGI,[32],> 100 µM
same,TGI,[33],> 100 µM
same,TGI,[34],> 100 µM
same,TGI,[35],> 100 µM
same,TGI,[36],> 100 µM
same,TGI,[37],> 100 µM
same,TGI,[38],> 69.7 µM
same,TGI,[39],> 100 µM
same,TGI,[40],> 100 µM
same,TGI,[41],> 100 µM
same,TGI,[42],> 100 µM
same,TGI,[43],> 100 µM
same,TGI,[44],> 100 µM
same,TGI,[45],> 100 µM
same,TGI,[46],> 100 µM
same,TGI,[47],> 100 µM
same,TGI,[48],> 100 µM
same,TGI,[49],> 100 µM
same,TGI,[50],> 100 µM
same,TGI,[51],> 100 µM
same,TGI,[52],> 100 µM
same,TGI,[53],> 100 µM
same,TGI,[54],> 100 µM
same,TGI,[55],> 100 µM
same,TGI,[56],> 100 µM
same,TGI,[57],> 53 µM
